Test results: US9549553B2, “Active compound combinations having insecticidal properties” (BAYER CROPSCIENCE AKTIENGESELLSCHAFT, priority 2013, dated 2017)

How the values were obtained:
Format in all cases: in vivo
[1] = test system: green peach aphid (Myzus persicae); assay: Myzus persicae - spray test, Example C-1 (Chinese cabbage leaf-disks); conditions: mortality
Method: To produce a suitable preparation of active compound, 1 part by weight of active compound is mixed with the stated amount of solvent and emulsifier, and the concentrate is diluted with emulsifier-containing water to the desired concentration.
Chinese cabbage (Brassica pekinensis) leaf-disks infected with all instars of the green peach aphid (Myzus persicae) are sprayed with a preparation of the active ingredient of the desired concentration.
After the specified period of time, mortality in % is determined 100% means all aphids have been killed; 0% means none of the aphids have been killed. The mortality values determined thus are recalculated using the Colby-formula (see sheet 1).

[2] = test system: fall armyworm larvae (Spodoptera frugiperda); assay: Spodoptera frugiperda - spray test (maize leaf sections); conditions: mortality
Method: (§1) To produce a suitable preparation of the active compound, 1 part by weight of active compound is mixed with the stated amount of solvent and emulsifier, and the concentrate is diluted with emulsifier-containing water to the desired concentration. To produce a suitable preparation of a spore suspension the spores are diluted with emulsifier-containing water to the desired concentration.
Maize (Zea mais) leaf sections are sprayed with a preparation of the active ingredient of the desired concentration. Once dry, the leaf sections are infested with fall armyworm larvae (Spodoptera frugiperda).
After the specified period of time, mortality in % is determined. 100% means all caterpillars have been killed and 0% means none of the caterpillars have been killed. The mortality values determined thus are recalculated using the Colby-formula (see sheet 1).

[3] = test system: mustard beetle larvae (Phaedon cochleariae); assay: Phaedon cochleariae - spray test, Example B-2 (cabbage leaves); conditions: mortality
Method: (§2) Solvent: 7 parts by weight of dimethylformamide
Emulsifier: alkylaryl polyglycol ether
(§3) To produce a suitable preparation of active compound, 1 part by weight of active compound is mixed with the stated amount of solvent and is diluted with water, containing an emulgator concentration of 1000 ppm, to the desired concentration. Further test concentrations are prepared by dilution with emulsifier containing water Ammonium salt and/or penetration enhancer in a dosage of 1000 ppm are added to the desired concentration if necessary.
Cabbage leaves (Brassica oleracea) are treated by being sprayed with the preparation of the active compound of the desired concentration and are infested with mustard beetle larvae (Phaedon cochleariae).
After the specified period of time mortality in % is determined. 100% means all the beetle larvae have been killed and 0% means none of the beetle larvae have been killed. The mortality values determined thus are recalculated using the Colby-formula (see sheet 1).

[4] = test system: green peach aphid (Myzus persicae); assay: Myzus persicae - spray test, Example C-2 (cabbage leaves); conditions: mortality, 0.5 ppm
Method: as §2
Emulsifier: alkylaryl polyglycolether
as §3
Cabbage leaves (Brassica oleracea) which are heavily infested by the green peach aphid (Myzus persicae) are treated by being sprayed with the preparation of the active compound of the desired concentration.
After the specified period of time, mortality in % is determined 100% means all the aphids have been killed; 0% means none of the aphids have been killed. The mortality values determined thus are recalculated using the Colby-formula (see sheet 1).

[5] = test system: larvae of the diamondback moth (Plutella xylostella); assay: Plutella xylostella - spray test (cabbage leaves); conditions: mortality
Method: To produce a suitable preparation of active compound, 1 part by weight of active compound is mixed with the stated amount of solvent and emulsifier, and the concentrate is diluted with emulsifier-containing water to the desired concentration Ammonium salt and/or penetration enhancer in a dosage of 1000 ppm are added to the desired concentration if necessary.
Cabbage leaves (Brassica oleracea) are treated by being sprayed with the preparation of the active compound of the desired concentration and are infested with larvae of the diamondback moth (Plutella xylostella).
After the specified period of time, the mortality in % is determined. 100% means all the caterpillars have been killed; 0% means none of the caterpillars have been killed. The mortality values determined thus are recalculated using the Colby-formula (see sheet 1).

[6] = test system: mustard beetle larvae (Phaedon cochleariae); assay: Phaedon cochleariae - spray test, Example B-1 (Chinese cabbage leaf-disks); conditions: mortality
Method: as §1, with “of” for “of the”
Chinese cabbage (Brassica pekinensis) leaf-disks are sprayed with a preparation of the active ingredient of the desired concentration. Once dry, the leaf disks are infested with mustard beetle larvae (Phaedon cochleariae).
After the specified period of time, mortality in % is determined. 100% means all beetle larvae have been killed and 0% means none of the beetle larvae have been killed. The mortality values determined thus are recalculated using the Colby-formula (see sheet 1).

[7] = test system: two spotted spidermite (Tetranychus urticae); assay: Tetranychus urticae - spray test, OP-resistant (French beans); conditions: mortality, 1 g ai/ha
Method: as §1, with “of” for “of the”
French beans (Phaseolus vulgaris) which are heavily infested with all stages of the two spotted spidermite (Tetranychus urticae), are sprayed with a preparation of the active ingredient of the desired concentration.
After the specified period of time, mortality in % is determined. 100% means all spider mites have been killed and 0% means none of the spider mites have been killed. The mortality values determined thus are recalculated using the Colby-formula (see sheet 1).

With `CC1(C)[C@H](C(=O)O[C@H](C#N)c2cccc(Oc3ccccc3)c2)[C@@H]1C=C(Br)Br` [Deltamethrin] the “Efficacy in % after 6d” value ([1]; 0.15 g ai/ha) was 0% and the “Efficacy in % after 6d” value ([2]; 0.25 g ai/ha) was 0%.

In the case of `CC1(C)C(C=C(Cl)Cl)C1C(=O)OC(C#N)c1ccc(F)c(Oc2ccccc2)c1` (stereo not drawn) [Beta-Cyfluthrin (II-11), beta-Cyfluthrin], the “Efficacy in % after 3d” value ([3]; 1.2 ppm) is reported as 0%, the “Efficacy in % after 6d” value ([2]; 0.032 g ai/ha) is reported as 0% and the “Efficacy in % after 6d” value [4] is reported as 50%.

With `Cc1cc(C(F)(C(F)(F)F)C(F)(F)F)ccc1NC(=O)c1cccc(Cl)c1C(=O)NC(C)(C)C#N` [(I-5)] the “Efficacy in % after 6d” value ([1]; 1.25 g ai/ha) was 0%, the “Efficacy in % after 6d” value ([1]; 1.5 g ai/ha) was 0% and the “Efficacy in % after 6d” value ([1]; 15 g ai/ha) was 0%. The “Efficacy in % after 3d” value ([5]; 0.25 ppm) was 0%, the “Efficacy in % after 3d” value ([3]; 1.2 ppm) was 0% and the “Efficacy in % after 3d” value ([3]; 4.8 ppm) was 50%. For the same compound, the “Efficacy in % after 6d” value ([2]; 0.8 g ai/ha) was 33%, the “Efficacy in % after 6d” value ([6]; 2.5 g ai/ha) was 0% and the “Efficacy in % after 6d” value ([6]; 12 g ai/ha) was 0%.

For `CC1(C)[C@H](C(=O)O[C@H](C#N)c2cccc(Oc3ccccc3)c2)[C@@H]1/C=C(\Cl)C(F)(F)F` (racemic) [Lambda-Cyhalothrin, lambda-Cyhalothrin], the “Efficacy in % after 6d” value ([1]; 0.125 g ai/ha) was 0%, the “Efficacy in % after 3d” value ([5]; 1 ppm) was 0% and the “Efficacy in % after 6d” value [7] was 0%. For the same compound, the “Efficacy in % after 6d” value ([6]; 0.25 g ai/ha) was 0%.
